The source of these data is article PMC11527646, “Pharmacological blockade of the mast cell MRGPRX2 receptor supports investigation of its relevance in skin disorders” (Frontiers in Immunology, 2024).

The target of one assay is T1, MRGPRX2 (Homo sapiens, UniProt Q96LB1).
T1 sequence (Q96LB1 1-330): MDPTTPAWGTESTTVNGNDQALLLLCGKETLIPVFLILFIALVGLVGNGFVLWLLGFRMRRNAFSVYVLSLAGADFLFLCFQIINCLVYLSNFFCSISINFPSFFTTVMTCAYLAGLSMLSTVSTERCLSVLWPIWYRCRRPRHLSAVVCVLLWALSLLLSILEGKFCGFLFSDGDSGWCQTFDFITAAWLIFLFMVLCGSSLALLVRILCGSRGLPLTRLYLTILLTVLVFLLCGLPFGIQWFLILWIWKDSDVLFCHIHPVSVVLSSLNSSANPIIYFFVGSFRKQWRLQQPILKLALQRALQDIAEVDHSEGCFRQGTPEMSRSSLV
The experiment in a line: LAD2 mast cell degranulation (β-hexosaminidase release), MRGPRX2 ligand-mediated. The assay is classed as cell-based. On the set-up: human mast cells expressing endogenous MRGPRX2; endogenous in cells; […]. The method, then:
Two different in vitro human mast cell systems were studied: (a) a human mast cell line, LAD2, established from a patient with mast cell sarcoma; and (b) mast cells freshly isolated from human skin. MRGPRX2 antagonist IC50 values were determined in the LAD2 mast cell degranulation assay using approximately EC80 concentrations for five different MRGPRX2 activating ligands (see Supplementary Figure 1 ).

The next assay has as its system human basophils. The experiment in a line: Histamine release from human blood basophils (buffy coats). It is filed as cell-based. The settings on record: 0.2–25 μM; non-allergic or allergic donors, with or without anti-IgE pre-incubation. The method, then: Blood bank buffy coats were screened for reactions against 10 inhalant allergens (grass, birch, mugwort, cat, dog, horse, Dermatophagoides pteronyssinus, Dermatophagoides farinae, Cladosporium, and Alternaria) and 10 food allergens (milk, egg, wheat, peanut, hazelnut, kiwi, cod fish, shrimp, celeriac, and soy). Five buffy coats with histamine release > 30 ng/mL to any of the tested allergens and with a histamine release to blood with anti-IgE > 30 ng/mL were included as allergic donors. Further, five buffy coats with histamine release < 10 ng/mL to any of the above-mentioned allergens and with a histamine release to blood with anti-IgE > 25 ng/mL were included as non-allergic donors.
The buffy coats were pre-incubated for 30 min at 37°C with either buffer or anti-human IgE in concentrations ranging from 0.04 µg/mL to 5 µg/mL. […] Following pre-incubation with anti-IgE and incubation with SP, released histamine was quantified as previously described ([14]). Briefly, histamine was bound to a glass fiber matrix at the bottom of microtiter plates and after a series of wash steps coupled to ortho-phtaldialdehyde before being detected fluorometrically in the Histareader™ 501 (RefLab ApS, Copenhagen, Denmark). […]
Anti-IgE pre-stimulation. Histamine release measured in blood samples pre-incubated with various concentrations of anti-lgE for 30 mins, followed by 1 hour incubation with various […]

“Also recorded” adds a separate entry of the source. Read-outs that look alike come from different tables or passages of the source. Bridge positions count the residues as written; N and C are the ends. Peptide text beside a SMILES is read from it.

Consider `C[C@@H](O)[C@@H]1NC(=O)[C@H](CCCCN)NC(=O)[C@H](Cc2c[nH]c3ccccc23)NC(=O)[C@H](Cc2ccccc2)NC(=O)[C@H](Cc2ccccc2)NC(=O)[C@H](CC(N)=O)NC(=O)[C@H](CCCCN)NC(=O)[C@@H](NC(=O)[C@@H]2CCCN2)CSSC[C@@H](C(=O)N[C@@H](CCCCN)C(=O)O)NC(=O)[C@H](CO)NC(=O)[C@H](CO)NC(=O)[C@H](Cc2ccccc2)NC1=O` [Cortistatin 14, reference compound] (H-PCKNFFWKTFSSCK-OH; disulfide 2-13; N-terminus and C-terminus assumed), for which, at MRGPRX2 (representative dose response curves, read-out: LAD2 mast cell degranulation agonist EC50), the EC50 stood at 67 nM. `CC[C@H](C)[C@H](NC(=O)CNC(=O)[C@H](CC(=O)O)NC(=O)[C@H](CO)NC(=O)[C@@H](N)Cc1cnc[nH]1)C(=O)N[C@@H](Cc1ccccc1)C(=O)N[C@H](C(=O)N[C@@H](CC(=O)O)C(=O)N[C@@H](CO)C(=O)N[C@@H](Cc1ccc(O)cc1)C(=O)N[C@@H](CO)C(=O)N[C@@H](CCCNC(=N)N)C(=O)N[C@@H](Cc1ccc(O)cc1)C(=O)N[C@@H](CCCNC(=N)N)C(=O)N[C@@H](CCCCN)C(=O)N[C@@H](CCC(N)=O)C(=O)N[C@@H](CCSC)C(=O)N[C@@H](C)C(=O)N[C@H](C(=O)N[C@@H](CCCCN)C(=O)N[C@@H](CCCCN)C(=O)N[C@@H](Cc1ccc(O)cc1)C(=O)N[C@@H](CC(C)C)C(=O)N[C@@H](C)C(=O)N[C@@H](C)C(=O)N[C@H](C(=O)N[C@@H](CC(C)C)C(N)=O)C(C)C)C(C)C)[C@@H](C)O` [PACAP-27, reference compound]: the EC50 at MRGPRX2 turned out to be 218 nM. As to `CSCC[C@H](NC(=O)[C@H](CC(C)C)NC(=O)CNC(=O)[C@H](Cc1ccccc1)NC(=O)[C@H](Cc1ccccc1)NC(=O)[C@H](CCC(N)=O)NC(=O)[C@H](CCC(N)=O)NC(=O)[C@@H]1CCCN1C(=O)[C@H](CCCCN)NC(=O)[C@@H]1CCCN1C(=O)[C@@H](N)CCCN=C(N)N)C(N)=O` [Substance P], the “Histamine release response of basophils” value in the assay with human basophils is listed as “no SP response could be detected”. Consider `COc1ccc(-n2nnnc2C(F)(F)F)cc1CN[C@H]1CCCN[C@H]1c1ccccc1` [vofopitant, reference compound], for which the “Influence on Substance P-mediated mast cell degranulation” value at MRGPRX2 (Substance P 1 μM, β-hexosaminidase release, n = 8) was “has no influence; also recorded: unaltered”.

For orientation: EC50 means the concentration that produces a half-maximal response.
